Assay results as given in PubChem BioAssay (NCI).
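Five concentrations, 48 hours, 96-well plates. At the TGI there is no net growth.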

Columns and labels:
Assay in all cases: DTP human tumour cell line panel, 48 h
[1] = tested on: UACC-257 melanoma
[2] = tested on: NCI-H522 lung
[3] = tested on: MCF7 breast
[4] = tested on: HT29 colon
[5] = tested on: HCC-2998 colon
[6] = tested on: SN12C renal
[7] = tested on: U251 CNS
[8] = tested on: NCI-H226 lung
[9] = tested on: A498 renal
[10] = tested on: SK-OV-3 ovarian

SMILES | TGI [1] | TGI [2] | TGI [3] | TGI [4] | TGI [5] | TGI [6] | TGI [7] | TGI [8] | TGI [9] | TGI [10]
CC1C(c2ccc(F)cc2)c2cc3c(cc2OC1N1CCCC1)OCO3 (configuration not stated) | > 100 µM | > 100 µM | > 100 µM | > 100 µM | > 100 µM | > 100 µM |  |  |  | 
O=c1c(O)c(-c2ccc(O)cc2O)oc2cc(O)cc(O)c12 | > 100 µM |  | > 100 µM | > 100 µM | > 100 µM | > 100 µM | > 100 µM | > 100 µM |  | 
O=c1[nH]c2ccc(C(F)(F)F)cc2nc1-c1ccccc1 | > 100 µM | > 100 µM | > 100 µM | > 100 µM | > 100 µM | > 100 µM |  |  | > 100 µM | 
O=c1c2ccccc2nc2n1NC(c1c(Cl)cccc1Cl)N2c1cccc(Cl)c1 (configuration not stated) | > 100 µM | 28.8 µM | 5.2 µM | > 100 µM | > 100 µM | 21.9 µM | 5.19 µM | 6.36 µM |  | 6.81 µM
COC(CN(C)C(=O)C(C)NC(=O)c1ccccc1)OC (configuration not stated) | > 100 µM | > 100 µM | > 100 µM | > 100 µM |  | > 100 µM | > 100 µM | > 100 µM |  | > 100 µM
CN1CCCN2CCN(C)CCN(CC1)CC2 | > 100 µM | > 100 µM | > 100 µM | > 100 µM | > 100 µM | > 100 µM | > 100 µM |  | > 100 µM | > 100 µM
O=C(NN=C1CCN(Cc2ccccc2)CC1)C(O)(c1ccccc1)c1ccccc1 | > 100 µM |  | > 100 µM | > 100 µM | > 100 µM | > 100 µM | > 100 µM | > 100 µM |  | > 100 µM
CCOC(=O)c1c(C)n(Cc2ccccc2)c(=O)c2ccccc2c(=O)c2c(=O)ccc(=O)c1=2 | > 100 µM | 62.8 µM |  | > 100 µM | > 100 µM | > 100 µM | > 100 µM | > 100 µM | > 100 µM | > 100 µM
CC(=O)OCC1OC(On2ccccc2=S)C(OC(C)=O)C(OC(C)=O)C1OC(C)=O (configuration not stated) | > 100 µM | > 100 µM | > 100 µM | > 100 µM | > 100 µM | > 100 µM | > 100 µM |  | > 100 µM | > 100 µM
COC(=O)c1ccccc1C1CN=NC12Cc1ccc3ccccc3c1C2=O (configuration not stated) | > 100 µM | > 100 µM | > 100 µM |  | > 100 µM | > 100 µM | > 100 µM | > 100 µM | > 100 µM | 
C=C[C@@H]1OC(=O)O[C@H]1CO | > 100 µM |  | > 100 µM | > 100 µM |  | > 100 µM | > 100 µM | > 100 µM | > 100 µM | > 100 µM
O=C(Cn1c(=O)ccn(C2OC(CO)C(O)C2F)c1=O)c1ccc(F)cc1 (configuration not stated) | > 100 µM | > 100 µM | > 100 µM | > 100 µM |  | > 100 µM | > 100 µM | > 100 µM |  | 
CCN(CC)CCn1c(C(C)(C)C)nc2ccccc21 | > 100 µM | > 100 µM | > 100 µM | > 100 µM | > 100 µM | > 100 µM | > 100 µM | > 100 µM |  | > 100 µM
COc1ccc2[nH]c(CCNC(=O)c3cc([N+](=O)[O-])cc([N+](=O)[O-])c3)cc2c1 | > 100 µM |  | > 100 µM | > 100 µM |  | > 100 µM | 78.1 µM | > 100 µM | > 100 µM | > 100 µM
CC1=C2C(O)C(C(C)C(=O)NCC(C)C)CCC2(C)C=CC1=O (configuration not stated) | > 100 µM | > 100 µM | > 100 µM | > 100 µM | > 100 µM | > 100 µM | > 100 µM | > 100 µM | > 100 µM | 
CCCCCCCCCOC(=O)c1cnc(Cl)cn1 | 45.6 µM | 36.1 µM | 57.7 µM | 86.1 µM |  | 36.9 µM | 33.9 µM | 32.7 µM |  | > 100 µM
CCOC(=O)C1(C(=O)OCC)C[C@]23OCCC(=O)[C@H]2[C@H]2C(=O)OC(C)(C)O[C@]23C1 | > 100 µM | > 100 µM | > 100 µM | > 100 µM | > 100 µM | > 100 µM | > 100 µM |  | > 100 µM | 
NC(N)=NCCCC(N=c1c2ccccc2n(O)c2ccccc12)C(=O)O (configuration not stated) |  | > 100 µM |  |  | > 100 µM | > 100 µM | > 100 µM | > 100 µM | > 100 µM | > 100 µM

SMILES | TGI [1] | TGI [2] | TGI [3] | TGI [4] | TGI [5] | TGI [6] | TGI [7] | TGI [8] | TGI [9] | TGI [10]
COc1cc(NS(C)(=O)=O)ccc1NCc1cnc2ccc3[nH]c(C)ccc3c12 | > 100 µM | > 100 µM | > 100 µM | > 100 µM |  | > 100 µM | > 100 µM | > 100 µM | 42 µM | > 100 µM
CSC1=N/C(=C\c2ccc(C)cc2)C(=O)N1CN1CCOCC1 |  | > 100 µM | > 100 µM |  |  | > 100 µM | > 100 µM | > 100 µM | > 100 µM | > 100 µM
CN(C)CCCNc1c(O)c2c(c(O)c1Cl)C(=O)C=CC2=O | 3.71 µM |  | 3.22 µM | 4.27 µM | 3.22 µM | 3.2 µM | 3.46 µM | > 10 µM | > 10 µM | > 10 µM
CC(C)(C)OC(=O)[N+](=N)C(=O)C1CCC(=O)N1C(=O)OCc1ccccc1 (configuration not stated) |  | > 100 µM | > 100 µM | > 100 µM | > 100 µM | > 100 µM | > 100 µM | > 100 µM |  | > 100 µM
CC1=C(/C=C/C(C)=C/C=C/C(C)=C/C(=O)OCC2OC(n3cc(F)c(=O)[nH]c3=O)CC2OC(=O)/C=C(C)/C=C/C=C(C)/C=C/C2=C(C)CCCC2(C)C)C(C)(C)CCC1 (configuration not stated) | > 92.1 µM | 28.2 µM | 36.8 µM | > 100 µM | 15 µM | > 31.6 µM | > 54.1 µM | > 69.3 µM |  | > 100 µM
CCCCCCCCC[C@@H]1C[C@@H]2CCC3C(C(=O)OC)=C(C)NC(=N1)N32 (some centres not stated) | 27 µM | 9.82 µM | 15.9 µM | 22.2 µM | 8.53 µM | 32.5 µM | 16.8 µM | 29.2 µM |  | 25 µM
CC/C(=N\NC(=O)c1cccnc1)c1ccc2c(c1)OCCO2 |  | 79.5 µM | > 100 µM | > 100 µM |  | > 100 µM | > 100 µM | > 100 µM | > 100 µM | > 100 µM
c1ccc2c(c1)ccc1nc(-c3ccc4c(c3)OCO4)c3c(c12)CCCC3 | > 100 µM |  | > 100 µM | > 100 µM | > 100 µM | 98.6 µM | > 100 µM | > 100 µM | 72.9 µM | > 100 µM
Cc1ccc2c(c1)SSSSS2 | 38.5 µM | 40.6 µM | 43 µM | 70.6 µM | 31.6 µM | 46.7 µM | > 100 µM |  | 35.1 µM | 39.8 µM
S=c1[nH]nc(COc2ccc3c(c2)CCCC3)n1/N=C/c1ccc(Cl)cc1 | 48.1 µM | 28.9 µM | 27.9 µM |  |  | 37.9 µM | 34.6 µM |  |  | 32.4 µM
NC(=O)NC(=O)c1cnccn1 | > 100 µM | > 100 µM | > 100 µM |  | > 100 µM | > 100 µM | > 100 µM | > 100 µM | > 100 µM | > 100 µM
CCOC(=O)CC(=O)NC1CC2CCC1(C)C2(C)C (configuration not stated) | > 100 µM |  | > 100 µM | > 100 µM | > 100 µM | > 100 µM | > 100 µM | > 100 µM | > 100 µM | > 100 µM
COc1c(CC=C(C)C)c(O)c(C(CC(C)C)c2c(O)c(C(C)=O)c(O)c3c2OC(C(C)(C)O)C3)c(O)c1C(C)=O (configuration not stated) | 9.32 µM | > 12.5 µM | > 12.5 µM | > 12.5 µM | > 12.5 µM | > 12.5 µM |  | > 12.5 µM | > 12.5 µM | 
CNc1ncnc(Sc2nc(N)nc3nc[nH]c23)c1[N+](=O)[O-] | 13 µM | 6.76 µM | > 41.5 µM | > 49.5 µM |  | 11.9 µM | 26.9 µM | > 100 µM | > 100 µM | > 100 µM
Cc1c(N2C(=O)/C(=C/C=C/c3ccccc3)N=C2c2ccccc2)c(=O)n(-c2ccccc2)n1C | 42.1 µM | 32.6 µM | > 100 µM | 54 µM |  | 69 µM | 33 µM | 58.4 µM |  | 66.9 µM
OC1(c2ccccc2)CC2CCC(C1)N2CCc1ccccc1 (configuration not stated) | 59.1 µM |  | 78.1 µM | 79.3 µM | > 100 µM | > 100 µM | > 100 µM | > 100 µM | 56.4 µM | > 100 µM
CN(C1=NCCO1)c1cccc2ccccc12 |  | > 10 µM | > 10 µM | > 10 µM | > 10 µM | > 10 µM | > 10 µM | > 10 µM | > 10 µM | > 10 µM
CC(=O)/C(C=Nc1c(C)n(C)n(-c2ccccc2)c1=O)=C(/C)O | > 100 µM | > 100 µM | > 100 µM |  | > 100 µM | > 100 µM | > 100 µM | > 100 µM | > 100 µM | > 100 µM
